Assays:
[1] = Membrane permeability by PAMPA assay; type: ADME; conditions: read-out: permeability
[2] = Selectivity of Tpl2 to PKA
[3] = Selectivity of Tpl2 to Src
[4] = Selectivity of Tpl2 to p38
[5] = Selectivity of Tpl2 to MK2
[6] = Selectivity of Tpl2 to PKC
[7] = Selectivity of Tpl2 to CAMK2
[8] = Selectivity of Tpl2 to EGFR
[9] = Clearance in rat; type: ADME, organism-based; conditions: in vivo
[10] = Cmax in rat at 100 mg/kg, po; type: ADME, organism-based; set-up: dose 100 mg/kg, route oral; conditions: in vivo
[11] = AUC in rat at 100 mg/kg, po; type: ADME, organism-based; set-up: dose 100 mg/kg, route oral; conditions: plasma

CC(C)(C)n1cc(CNc2cc(Cl)c3ncc(C#N)c(Nc4ccc(F)c(Cl)c4)c3c2)nn1 showed a Papp [1] of 0.1 ×10⁻⁶ cm/s, a fold change (FC) [2] of 10 and a fold change (FC) [3] of 10. For the same compound, the fold change (FC) [4] was 10, the fold change (FC) [5] was 10 and the fold change (FC) [6] was 10.
CCN1CCC(CCn2cc(CNc3cc(Cl)c4ncc(C#N)c(Nc5ccc(F)c(Cl)c5)c4c3)nn2)CC1 showed a fold change (FC) [2] of 10, a fold change (FC) [3] of 10 and a fold change (FC) [7] of 10. It also gave a fold change (FC) [4] of 10, a fold change (FC) [5] of 10 and a fold change (FC) [6] of 10.
N#Cc1cnc2c(Br)cc(NCc3cn(CCC4CCCN4)nn3)cc2c1Nc1ccc(F)c(Cl)c1 (stereo not drawn) gave a Papp [1] of 0.72 ×10⁻⁶ cm/s, a fold change (FC) [2] of 10 and a fold change (FC) [3] of 10. For the same compound, the fold change (FC) [7] was 10, the fold change (FC) [4] was 10 and the fold change (FC) [5] was 10. The fold change (FC) [6] was 10.
N#Cc1cnc2c(Br)cc(NCc3c[nH]nn3)cc2c1Nc1ccc(F)c(Cl)c1 showed a fold change (FC) [2] of 10, a fold change (FC) [3] of 10 and a fold change (FC) [4] of 10. For the same compound, the fold change (FC) [5] was 10 and the fold change (FC) [6] was 10.
N#Cc1cnc2c(Cl)cc(NCc3cn(-c4ccccc4)nn3)cc2c1Nc1ccc(F)c(Cl)c1 showed a fold change (FC) [2] of 10, a fold change (FC) [3] of 10 and a fold change (FC) [7] of 10. It also gave a fold change (FC) [4] of 10, a fold change (FC) [5] of 10 and a fold change (FC) [6] of 10.
Work on N#Cc1cnc2c(Cl)cc(NCc3c[nH]nn3)cc2c1Nc1ccc(F)c(Cl)c1 yielded a fold change (FC) [2] of 10, a fold change (FC) [3] of 10 and a fold change (FC) [7] of 10. The fold change (FC) [4] was 10, the fold change (FC) [5] was 10 and the fold change (FC) [6] was 10. It also gave a fold change (FC) [8] of 10.
For N#Cc1cnc2c(Cl)cc(NCc3cn(Cc4ccccn4)nn3)cc2c1Nc1ccc(F)c(Cl)c1, the fold change (FC) [2] was 10, the fold change (FC) [3] was 10 and the fold change (FC) [7] was 10. The fold change (FC) [4] was 10, the fold change (FC) [5] was 10 and the fold change (FC) [6] was 10.
For CC(C)(C)n1cc(CNc2cc(Br)c3ncc(C#N)c(Nc4ccc(F)c(Cl)c4)c3c2)nn1, the fold change (FC) [2] was 10, the fold change (FC) [3] was 10 and the fold change (FC) [7] was 10. The fold change (FC) [4] was 10, the fold change (FC) [5] was 10 and the fold change (FC) [6] was 10.
Work on N#Cc1cnc2c(Cl)cc(NCc3cn(CCN4CCCCCC4)nn3)cc2c1Nc1ccc(F)c(Cl)c1 yielded a fold change (FC) [2] of 10, a fold change (FC) [3] of 10 and a fold change (FC) [7] of 10. The fold change (FC) [4] was 10, the fold change (FC) [5] was 10 and the fold change (FC) [6] was 10.
CN1CCC(n2cc(CNc3cc(Cl)c4ncc(C#N)c(Nc5ccc(F)c(Cl)c5)c4c3)nn2)CC1 showed a Papp [1] of 0.39 ×10⁻⁶ cm/s, a fold change (FC) [2] of 10 and a fold change (FC) [3] of 10. The fold change (FC) [7] was 10, the fold change (FC) [4] was 10 and the fold change (FC) [5] was 10. For the same compound, the fold change (FC) [6] was 10.
Work on CN(C)CCn1cc(CNc2cc(Cl)c3ncc(C#N)c(Nc4ccc(F)c(Cl)c4)c3c2)nn1 yielded a fold change (FC) [2] of 10, a fold change (FC) [3] of 10 and a fold change (FC) [7] of 10. It also gave a fold change (FC) [4] of 10, a fold change (FC) [5] of 10 and a fold change (FC) [6] of 10.
With N#Cc1cnc2c(Cl)cc(NCc3cn(Cc4ccncc4)nn3)cc2c1Nc1ccc(F)c(Cl)c1 the fold change (FC) [2] was 10, the fold change (FC) [3] was 10 and the fold change (FC) [7] was 10. For the same compound, the fold change (FC) [4] was 10, the clearance [9] was 88 mL/min/kg and the fold change (FC) [5] was 10. It also gave a fold change (FC) [6] of 10.
For N#Cc1cnc2c(Br)cc(NCc3cn(CC(=O)O)nn3)cc2c1Nc1ccc(F)c(Cl)c1, the Papp [1] was 1.8 ×10⁻⁶ cm/s, the fold change (FC) [2] was 10 and the fold change (FC) [3] was 10. For the same compound, the fold change (FC) [7] was 10, the fold change (FC) [4] was 10 and the fold change (FC) [5] was 10. The fold change (FC) [6] was 10.
N#Cc1cnc2c(Cl)cc(NCc3cn(CCN4CCCCC4)nn3)cc2c1Nc1ccc(F)c(Cl)c1 gave a fold change (FC) [2] of 10, a fold change (FC) [3] of 10 and a fold change (FC) [7] of 10. For the same compound, the fold change (FC) [4] was 10, the fold change (FC) [5] was 10 and the fold change (FC) [6] was 10.
N#Cc1cnc2c(Cl)cc(NCc3cn(CC(=O)O)nn3)cc2c1Nc1ccc(F)c(Cl)c1 showed a Papp [1] of 0.04 ×10⁻⁶ cm/s, a fold change (FC) [2] of 10 and a fold change (FC) [3] of 10. For the same compound, the fold change (FC) [7] was 10, the fold change (FC) [4] was 10 and the fold change (FC) [5] was 10. For the same compound, the fold change (FC) [6] was 10.
N#Cc1cnc2c(Br)cc(NCc3cn(Cc4cccnc4)nn3)cc2c1Nc1ccc(F)c(Cl)c1 showed a Papp [1] of 0.13 ×10⁻⁶ cm/s, a fold change (FC) [2] of 10 and a fold change (FC) [3] of 10. It also gave a fold change (FC) [7] of 10, a fold change (FC) [4] of 10 and a fold change (FC) [5] of 10. It also gave a fold change (FC) [6] of 10.
Compound N#Cc1cnc2c(Cl)cc(NCc3cn(CCCN)nn3)cc2c1Nc1ccc(F)c(Cl)c1 has a fold change (FC) [2] of 10, a fold change (FC) [3] of 10 and a fold change (FC) [7] of 10. It also gave a fold change (FC) [4] of 10, a fold change (FC) [5] of 10 and a fold change (FC) [6] of 10.
In the case of CC(C)N1CCC(n2cc(CNc3cc(Cl)c4ncc(C#N)c(Nc5ccc(F)c(Cl)c5)c4c3)nn2)CC1, the fold change (FC) [2] is reported as 10, the fold change (FC) [3] is reported as 10 and the fold change (FC) [7] is reported as 10. For the same compound, the fold change (FC) [4] was 10, the fold change (FC) [5] was 10 and the fold change (FC) [6] was 10.
In the case of N#Cc1cnc2c(Cl)cc(NCc3cn(Cc4cccnc4)nn3)cc2c1Nc1ccc(F)c(Cl)c1, the Papp [1] is reported as 0.18 ×10⁻⁶ cm/s, the fold change (FC) [2] is reported as 10 and the fold change (FC) [3] is reported as 10. For the same compound, the fold change (FC) [7] was 10, the fold change (FC) [4] was 10 and the fold change (FC) [5] was 10. For the same compound, the fold change (FC) [6] was 10.
N#Cc1cnc2c(Cl)cc(NCc3cn(C4CCNCC4)nn3)cc2c1Nc1ccc(F)c(Cl)c1 gave a Papp [1] of 0.03 ×10⁻⁶ cm/s, a fold change (FC) [2] of 10 and a fold change (FC) [3] of 10. It also gave a fold change (FC) [7] of 10, a fold change (FC) [4] of 10 and a fold change (FC) [5] of 10. The fold change (FC) [6] was 10.
N#Cc1cnc2c(Cl)cc(NCc3cn(-c4cccnc4)nn3)cc2c1Nc1ccc(F)c(Cl)c1 showed a fold change (FC) [2] of 10, a fold change (FC) [3] of 10 and a fold change (FC) [7] of 10. It also gave a fold change (FC) [4] of 10, a fold change (FC) [5] of 10 and a fold change (FC) [6] of 10.
For N#Cc1cnc2c(Cl)cc(NCc3cn(-c4ccncc4)nn3)cc2c1Nc1ccc(F)c(Cl)c1, the fold change (FC) [2] was 10, the fold change (FC) [3] was 10 and the fold change (FC) [7] was 10. It also gave a fold change (FC) [4] of 10, a clearance [9] of 28 mL/min/kg and a fold change (FC) [5] of 10. It also gave a fold change (FC) [6] of 10.
With N#Cc1cnc2c(Cl)cc(NCc3cn(CCN4CCOCC4)nn3)cc2c1Nc1ccc(F)c(Cl)c1 the fold change (FC) [2] was 10, the fold change (FC) [3] was 10 and the fold change (FC) [7] was 10. The fold change (FC) [4] was 10, the fold change (FC) [5] was 10 and the fold change (FC) [6] was 10.
For N#Cc1cnc2c(Br)cc(NCc3cn(-c4ccccc4)nn3)cc2c1Nc1ccc(F)c(Cl)c1, the Papp [1] was 1.2 ×10⁻⁶ cm/s, the fold change (FC) [2] was 10 and the fold change (FC) [3] was 10. It also gave a fold change (FC) [7] of 10, a fold change (FC) [4] of 10 and a fold change (FC) [5] of 10. The fold change (FC) [6] was 10.
CCN1CCC(n2cc(CNc3cc(Cl)c4ncc(C#N)c(Nc5ccc(F)c(Cl)c5)c4c3)nn2)CC1 gave a Papp [1] of 0.36 ×10⁻⁶ cm/s, a Cmax [10] of 517 ng/mL and a fold change (FC) [2] of 10. The fold change (FC) [3] was 10, the fold change (FC) [7] was 10 and the fold change (FC) [4] was 10. The fold change (FC) [5] was 10, the AUC [11] was 4840 ng·h/mL and the fold change (FC) [6] was 10. It also gave a fold change (FC) [8] of 6880.
CN1CCCC1CCn1cc(CNc2cc(Cl)c3ncc(C#N)c(Nc4ccc(F)c(Cl)c4)c3c2)nn1 (stereo not drawn) showed a fold change (FC) [2] of 10, a fold change (FC) [3] of 10 and a fold change (FC) [7] of 10. It also gave a fold change (FC) [4] of 10, a fold change (FC) [5] of 10 and a fold change (FC) [6] of 10.
In the case of CCCN1CCC(n2cc(CNc3cc(Cl)c4ncc(C#N)c(Nc5ccc(F)c(Cl)c5)c4c3)nn2)CC1, the Papp [1] is reported as 0.48 ×10⁻⁶ cm/s, the fold change (FC) [2] is reported as 10 and the fold change (FC) [3] is reported as 10. The fold change (FC) [7] was 10, the fold change (FC) [4] was 10 and the fold change (FC) [5] was 10. For the same compound, the fold change (FC) [6] was 10.
Compound N#Cc1cnc2c(Cl)cc(NCc3cn(CCC4CCCN4)nn3)cc2c1Nc1ccc(F)c(Cl)c1 (stereo not drawn) has a Papp [1] of 0.57 ×10⁻⁶ cm/s, a fold change (FC) [2] of 10 and a fold change (FC) [3] of 10. For the same compound, the fold change (FC) [7] was 10, the fold change (FC) [4] was 10 and the fold change (FC) [5] was 10. The fold change (FC) [6] was 10.
For N#Cc1cnc2c(Cl)cc(NCc3cn(Cc4ccccc4)nn3)cc2c1Nc1ccc(F)c(Cl)c1, the fold change (FC) [2] was 10, the fold change (FC) [3] was 10 and the fold change (FC) [7] was 10. For the same compound, the fold change (FC) [4] was 10, the fold change (FC) [5] was 10 and the fold change (FC) [6] was 10.
Compound N#Cc1cnc2c(Cl)cc(NCc3cn(C4CCN(C5CCC5)CC4)nn3)cc2c1Nc1ccc(F)c(Cl)c1 has a Papp [1] of 0.43 ×10⁻⁶ cm/s, a fold change (FC) [2] of 10 and a fold change (FC) [3] of 10. It also gave a fold change (FC) [7] of 10, a fold change (FC) [4] of 10 and a fold change (FC) [5] of 10. It also gave a fold change (FC) [6] of 10.
Work on N#Cc1cnc2c(Cl)cc(NCc3cn(CCN)nn3)cc2c1Nc1ccc(F)c(Cl)c1 yielded a fold change (FC) [2] of 10, a fold change (FC) [3] of 10 and a fold change (FC) [7] of 10. It also gave a fold change (FC) [4] of 10, a fold change (FC) [5] of 10 and a fold change (FC) [6] of 10.

Reference: ChEMBL document CHEMBL1136974, “Selective inhibitors of tumor progression loci-2 (Tpl2) kinase with potent inhibition of TNF-alpha production in human whole blood” (Bioorg Med Chem Lett, 2009)
